Laboratory results taken from US20150094294A1, “COMPOUNDS AND METHODS FOR TREATING MALARIA” (Cellceutix Corporation, priority 2012, published 2015).
Converted amounts (≈) assume the structure as drawn.

What was measured:
Format in all cases: cell-based
[1] = test system: P. falciparum 3D7 (chloroquine-sensitive); experiment: Anti-malarial activity, P. falciparum 3D7 culture, 72 hour, DNA content by flow cytometry; settings: Plasmodium falciparum, 3D7, 72 h, synchronized ring-stage parasites
Experimental: Numerous compounds were screened in cultures of the malaria parasite P. falciparum 3D7 (chloroquine-sensitive) and DD2 (chloroquine-resistant). The compounds were also screened for toxixcity against 3T3 cells, HepG2 cells, and in a hemolysis assay. In brief, P. falciparum parasites were cultured in RPMI 1640 (Invitrogen) supplemented with Albumax II (Invitrogen). For synchronization, schizont stage parasites were magnet purified using a SuperMACS™ II Cell Separation Unit (Miltenyi Biotech). For IC50 determinations, synchronized ring-stage parasites were plated at 0.5% parasitemia and 8% hematocrit in 96-well plates at a total volume of 50 μL. Serial dilutions of 2× concentration of the respective compound, ranging from 2.5 μM to 20 nM, were added to the wells to bring the total volume up to 100 μL and 4% hematocrit. Compounds were assayed for a 72 hour period, after which the cultures were fixed with a solution of 4% paraformaldehyde and 0.08% glutaraldhyde in PBS. The cells were then permeabilized with 0.25% Triton X-100, and SYTOX Green Nucleic Acid Stain (Invitrogen) in PBS was added to a final concentration of 5 μM. DNA content, as an indicator of parasitemia, was analyzed on an Accuri C6 Flow Cytometer with C-Sampler. IC50 curves were generated using GraphPad Prism (GraphPad Software).

[2] = Cytotoxicity against 3T3 cells; settings: mouse, 3T3 cells; read-out: Cytotoxicity 3T3 EC50
[3] = Cytotoxicity against HepG2 cells; settings: human, HepG2 cells; read-out: Cytotoxicity HepG2 EC50
[4] = in vitro

| SMILES | IC50 [1] | EC50 [4] | EC50 [2] | EC50 [3] |
| --- | --- | --- | --- | --- |
| NCc1ccc(C(F)(F)F)c(Oc2ccc(S(=O)(=O)c3ccc(Oc4cc(CN)ccc4C(F)(F)F)cc3)cc2)c1 [Compound 156] | 0.258 µM | 9 µg/mL (≈ 15.1 µM) | 25 µM | 50 µM |
| COc1ccc(C(=O)Nc2cc(C(F)(F)F)cc(NC(=O)c3cc(C(=O)Nc4cc(C(F)(F)F)cc(NC(=O)c5ccc(OC)cc5)c4SCCN)ncn3)c2SCCN)cc1 [Compound 310] | 0.084 µM | 81 µg/mL (≈ 89.7 µM) | > 1000 µM | 884 µM |
| COc1cc(SCCNC(=N)N)c(C(F)(F)F)cc1NC(=O)c1cc(C(=O)Nc2cc(C(F)(F)F)c(SCCNC(=N)N)cc2OC)nc(SCCNC(=N)N)n1 [Compound 184] | 0.129 µM | 4 µg/mL (≈ 4.62 µM) | 478 µM | > 1000 µM |
| N=C(N)NCCCOc1cc(OCCCNC(=N)N)c(-c2ccncc2)cc1-c1ccncc1 [Compound 140] | 0.602 µM | > 1000 µg/mL | > 1450 µM | > 1450 µM |
| O=C(Nc1ccc(OC2CNC2)cc1)c1cc(C(=O)Nc2ccc(OC3CNC3)cc2)ncn1 [Compound 196] | 0.03 µM | 164 µg/mL (≈ 356 µM) | > 1000 µM | 940 µM |
| CN1CC[C@@H](Oc2ccc(NC(=O)c3cc(C(=O)Nc4ccc(O[C@@H]5CCN(C)C5)c(C(F)(F)F)c4)ncn3)cc2C(F)(F)F)C1 [Compound 204] | 0.103 µM | 88 µg/mL (≈ 135 µM) | 477 µM | 483 µM |
| NCCSc1ccc(NC(=O)c2cc(C(=O)Nc3ccc(SCCN)cc3)ncn2)cc1 [Compound 192] | 0.182 µM | 32 µg/mL (≈ 68.3 µM) | 953 µM | > 1000 µM |
| N#Cc1ccc(C(=O)Nc2cc(C(F)(F)F)cc(NC(=O)c3cc(C(=O)Nc4cc(C(F)(F)F)cc(N)c4SCCN)ncn3)c2SCCN)cc1 [Compound 308] | > 0.1 µM | 2 µg/mL (≈ 2.62 µM) | 22 µM | 34 µM |
| CC(=O)Nc1cc(C(F)(F)F)cc(NC(=O)c2cc(C(=O)Nc3cc(C(F)(F)F)cc(NC(C)=O)c3SCCN)ncn2)c1SCCN [Compound 303] | 0.034 µM | 62 µg/mL (≈ 86.3 µM) | 887 µM | > 1000 µM |
| COc1cc(SCCNC(=N)N)c(C(F)(F)F)cc1NC(=O)c1cc(C(=O)Nc2cc(C(F)(F)F)c(SCCNC(=N)N)cc2OC)ncn1 [Compound 302] | 0.333 µM | 4 µg/mL (≈ 5.34 µM) | 687 µM | > 1000 µM |
| NC1CCC(Oc2ccc(NC(=O)c3cc(C(=O)Nc4ccc(OC5CCC(N)CC5)cc4)ncn3)cc2)CC1 (stereo not drawn) [Compound 200] | 0.004 µM | 24 µg/mL (≈ 44.1 µM) | 27 µM | 37 µM |
| N#Cc1cccc(C(=O)Nc2cc(C(F)(F)F)cc(NC(=O)c3cc(C(=O)Nc4cc(C(F)(F)F)cc(NC(=O)c5cccc(C#N)c5)c4O[C@@H]4CCNC4)ncn3)c2O[C@@H]2CCNC2)c1 [Compound 186] | 0.177 µM | 107 µg/mL (≈ 117 µM) | 63 µM | > 1000 µM |
| N=C(N)NCCSc1ccc(NC(=O)Nc2cccc(CCNC(=N)N)c2)cc1C(F)(F)F [Compound 270] | 0.108 µM | 317 µg/mL (≈ 657 µM) | 398 µM | 702 µM |
| N=C(N)NCCSc1nc(-c2cccc(CCNC(=N)N)c2)cc(-c2cccc(CCNC(=N)N)c2)n1 [Compound 222] | 0.551 µM | > 1000 µg/mL | 764 µM | > 1000 µM |
| N=C(N)NCCc1ccc(C(F)(F)F)cc1NC(=O)c1cc(C(=O)Nc2cc(C(F)(F)F)ccc2CCNC(=N)N)ncn1 [Compound 176] | 0.629 µM | 314 µg/mL (≈ 503 µM) | 523 µM | 608 µM |

Continued, in another order:

| IC50 [1] | EC50 [4] | SMILES | EC50 [2] | EC50 [3] |
| --- | --- | --- | --- | --- |
| 0.795 µM | 538 µg/mL (≈ 1470 µM) | NCCC#Cc1cncc(-c2cccc(-c3cncc(C#CCCN)c3)c2)c1 [Compound 142] | 229 µM | 594 µM |
| 0.152 µM | 28 µg/mL (≈ 72.1 µM) | c1cc(N2CCNCC2)ccc1-c1ccc(-c2ccc(N3CCNCC3)cc2)o1 [Compound 255] | 29 µM | 45 µM |
| 0.045 µM | > 1000 µg/mL | O=C(Nc1ccc(O[C@@H]2CCNC2)cc1)c1ccnc(C(=O)Nc2ccc(O[C@@H]3CCNC3)cc2)c1 [Compound 195] | > 1000 µM | > 1000 µM |
| 0.014 µM | 187 µg/mL (≈ 383 µM) | O=C(Nc1ccc(O[C@@H]2CCNC2)cc1)c1cc(C(=O)Nc2ccc(O[C@@H]3CCNC3)cc2)ncn1 [Compound 197] | 405 µM | 881 µM |
| 0.058 µM | 545 µg/mL (≈ 1120 µM) | N=C(N)N1CCN(c2ccc(-c3cccc(-c4ccc(N5CCN(C(=N)N)CC5)nc4)c3)cn2)CC1 [Compound 258] | 165 µM | 305 µM |
| > 0.1 µM | > 1000 µg/mL | c1cc(N2CCNCC2)ccc1-c1ccc(N2CCNCC2)cc1 [Compound 317] | 553 µM | 500 µM |
| 0.641 µM | 63 µg/mL (≈ 123 µM) | NCCCOc1cccc(-n2cc(-c3cccc(-c4cn(-c5cccc(OCCCN)c5)nn4)c3)nn2)c1 [Compound 180] | 40 µM | 78 µM |
| 0.473 µM | 352 µg/mL (≈ 879 µM) | c1nc(-c2ccc(N3CCNCC3)cc2)cc(-c2ccc(N3CCNCC3)cc2)n1 [Compound 154] | 210 µM | 471 µM |
| > 0.1 µM | > 1000 µg/mL | CN(C)C1CCN(c2ccc(NC(=O)c3ccnc(C(=O)Nc4ccc(N5CCC(N(C)C)CC5)cc4)c3)cc2)CC1 [Compound 217] | > 1000 µM | > 1000 µM |
| > 0.1 µM | > 1000 µg/mL | CN(C)C1CCN(c2ccc(NC(=O)c3cccc(C(=O)Nc4ccc(N5CCC(N(C)C)CC5)cc4)n3)cc2)CC1 [Compound 216] | > 1000 µM | > 1000 µM |
| 0.112 µM | > 1000 µg/mL | N=C(N)NCCCc1cccc(-c2cncc(-c3cccc(CCCNC(=N)N)c3)c2)c1 [Compound 132] | 323 µM | 456 µM |
| 0.045 µM | > 1000 µg/mL | O=C(Nc1ccc(O[C@@H]2CCNC2)cc1)c1cccc(C(=O)Nc2ccc(O[C@@H]3CCNC3)cc2)n1 [Compound 193] | > 1000 µM | > 1000 µM |
| 0.0883 µM | 0.8 µg/mL (≈ 1.43 µM) | NCCCOc1cccc(-n2cc(-c3ccc4ccc(-c5cn(-c6cccc(OCCCN)c6)nn5)cc4c3)nn2)c1 [Compound 152] | 406 µM | 502 µM |
| > 0.1 µM | > 1000 µg/mL | O=C(Nc1ccc(OC2CCNCC2)nc1)c1cc(C(=O)Nc2ccc(OC3CCNCC3)nc2)ncn1 [Compound 214] | > 1000 µM | > 1000 µM |
| > 0.1 µM | 52 µg/mL (≈ 109 µM) | c1cc(-c2ccc(N3CCNCC3)nc2)cc(-c2cccc(-c3ccc(N4CCNCC4)nc3)c2)c1 [Compound 319] | 57 µM | 83 µM |
| 0.187 µM | > 1000 µg/mL | O=C(Nc1ccc(O[C@@H]2CCNC2)cc1)c1cncc(C(=O)Nc2ccc(O[C@@H]3CCNC3)cc2)c1 [Compound 194] | > 1000 µM | > 1000 µM |
| 0.107 µM | 8 µg/mL (≈ 16.4 µM) | N=C(N)N1CCN(c2ccc(-c3ccc(-c4ccc(N5CCN(C(=N)N)CC5)cc4)s3)cc2)CC1 [Compound 253] | 419 µM | 606 µM |
| 0.126 µM | > 1000 µg/mL | N=C(N)NCCc1cccc(-c2cncc(-c3cccc(CCNC(=N)N)c3)c2)c1 [Compound 134] | 654 µM | 905 µM |
